Target: T1, Human TREM2 (Homo sapiens, UniProt Q9NZC2)
T1 construct: expressed in transfected cells
Experiment: Human TREM2 activity: cellular phosphorylation of Syk (AlphaLISA SureFire Ultra p-SYK) in HEK293/DAP12+TREM2 stable cell line
Format: cell-based
Settings: for Emax: HEK293, maximal response relative to reference agonist example 1B (remaining examples), read-out: Emax; for EC50: phospho-Syk AlphaLISA signal, HEK293/DAP12+TREM2 cells, concentration giving 50% of maximal response, read-out: EC50
Outline: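 HEK293 cells stably co-expressing human TREM2 and DAP12 were seeded at 10,000 cells/well and used 20–24 h later. Compounds were tested at 8 concentrations (top 100 μM, 1:6 steps, 0.5% DMSO) for 30 min at 37 °C. Syk phosphorylation at Tyr525/526 was read in lysates by AlphaLISA SureFire Ultra.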

T1 sequence (Q9NZC2 19-230): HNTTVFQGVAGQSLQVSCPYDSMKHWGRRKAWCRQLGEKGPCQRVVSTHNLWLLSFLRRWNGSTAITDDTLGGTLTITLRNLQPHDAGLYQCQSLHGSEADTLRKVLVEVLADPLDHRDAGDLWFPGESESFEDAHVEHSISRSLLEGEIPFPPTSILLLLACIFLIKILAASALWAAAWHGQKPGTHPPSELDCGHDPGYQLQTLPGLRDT
T1 sequence (O43914 22-113 partner): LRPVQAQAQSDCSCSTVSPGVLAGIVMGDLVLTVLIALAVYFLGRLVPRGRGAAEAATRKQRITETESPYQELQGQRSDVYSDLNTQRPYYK

SMILES	Emax	EC50
CNC(=O)C1CN(c2nc(-c3ccc(Cl)cc3F)c3nc(C)n(C)c(=O)c3n2)CCO1 (stereo not drawn) [Example 49, 4-(4-(4-chloro-2-fluorophenyl)-6,7-dimethyl-8-oxo-7,8-dihydropyrimido[5,4-d]pyrimidin-2-yl)-N-methylmorpholine-2-carboxamide]	< 75%	> 1000 nM
Cc1nc(C2CN(c3nc(-c4ccc(Cl)cc4F)c4nc(C)n(C)c(=O)c4n3)CCO2)no1 (stereo not drawn) [Example 50, 8-(4-chloro-2-fluorophenyl)-2,3-dimethyl-6-(2-(5-methyl-1,2,4-oxadiazol-3-yl)morpholino)pyrimido[5,4-d]pyrimidin-4(3H)-one]	< 75%	10 to 100 nM
Cc1nc2c(-c3ccc(Cl)cc3F)nc(N3CCOC(C(=O)N(C)C)C3)nc2c(=O)n1C (stereo not drawn) [Example 51, 4-(4-(4-chloro-2-fluorophenyl)-6,7-dimethyl-8-oxo-7,8-dihydropyrimido[5,4-d]pyrimidin-2-yl)-N,N-dimethylmorpholine-2-carboxamide]	75 to 110%	> 1000 nM
Cc1nc2c(-c3ccc(Cl)cc3F)nc(N3CCOC(C)(c4cnn(C)c4)C3)nc2c(=O)n1C (stereo not drawn) [Example 55, 8-(4-chloro-2-fluorophenyl)-2,3-dimethyl-6-(2-methyl-2-(1-methyl-1H-pyrazol-4-yl)morpholino)pyrimido[5,4-d]pyrimidin-4(3H)-one]	< 75%	> 1000 nM
Cc1nc2c(-c3ccc(Cl)cc3F)nc(N3CCOC4(CCN(C)CC4)C3)nc2c(=O)n1C [Example 56, 8-(4-chloro-2-fluorophenyl)-2,3-dimethyl-6-(9-methyl-1-oxa-4,9-diazaspiro[5.5]undecan-4-yl)pyrimido[5,4-d]pyrimidin-4(3H)-one]	< 75%	> 1000 nM
Cc1nc2c(-c3ccc(Cl)cc3F)nc(N3CCOC(C)(C)C3)nc2c(=O)n1C [Example 57, 8-(4-chloro-2-fluorophenyl)-6-(2,2-dimethylmorpholino)-2,3-dimethylpyrimido[5,4-d]pyrimidin-4(3H)-one]	< 75%	> 1000 nM
COc1ccc(Cn2c(C)nc3c(-c4ccc(Cl)cc4F)nc(N4CCOC(c5cnn(C)c5)C4)nc3c2=O)cc1 (stereo not drawn) [Example 59, 8-(4-chloro-2-fluorophenyl)-3-(4-methoxybenzyl)-2-methyl-6-(2-(1-methyl-1H-pyrazol-4-yl)morpholino)pyrimido[5,4-d]pyrimidin-4(3H)-one]	75 to 110%	100 to 1000 nM
Cc1nc2c(-c3ccc(Cl)cc3F)nc(N3CCOC(c4cnn(C)c4)C3)nc2c(=O)[nH]1 (stereo not drawn) [Example 60, 8-(4-chloro-2-fluorophenyl)-2-methyl-6-(2-(1-methyl-1H-pyrazol-4-yl)morpholino)pyrimido[5,4-d]pyrimidin-4 (3H)-one]	< 75%	100 to 1000 nM

Other lines, results leading:

Emax	EC50	SMILES
< 75%	10 to 100 nM	Cc1nnc(C2CN(c3nc(-c4ccc(Cl)cc4F)c4nc(C)n(C)c(=O)c4n3)CCO2)o1 (stereo not drawn) [Example 43, 8-(4-chloro-2-fluorophenyl)-2,3-dimethyl-6-(2-(5-methyl-1,3,4-oxadiazol-2-yl)morpholino)pyrimido[5,4-d]pyrimidin-4(3H)-one]
75 to 110%	100 to 1000 nM	Cc1nc2c(-c3ccc(Cl)cc3F)nc(N3CCOC(c4ccnn4C)C3)nc2c(=O)n1C (stereo not drawn) [Example 44, 8-(4-chloro-2-fluorophenyl)-2,3-dimethyl-6-(2-(1-methyl-1H-pyrazol-5-yl)morpholino)pyrimido[5,4-d]pyrimidin-4(3H)-one]
< 75%	10 to 100 nM	Cc1csc(C2CN(c3nc(-c4ccc(Cl)cc4F)c4nc(C)n(C)c(=O)c4n3)CCO2)n1 (stereo not drawn) [Example 45, 8-(4-chloro-2-fluorophenyl)-2,3-dimethyl-6-(2-(4-methylthiazol-2-yl)morpholino)pyrimido[5,4-d]pyrimidin-4(3H)-one]
< 75%	100 to 1000 nM	Cc1n[nH]c(C2CN(c3nc(-c4ccc(Cl)cc4F)c4nc(C)n(C)c(=O)c4n3)CCO2)n1 (stereo not drawn) [Example 46, 8-(4-chloro-2-fluorophenyl)-2,3-dimethyl-6-(2-(3-methyl-1H-1,2,4-triazol-5-yl)morpholino)pyrimido[5,4-d]pyrimidin-4(3H)-one]
< 75%	100 to 1000 nM	Cc1nc2c(-c3ccc(Cl)cc3F)nc(N3CCOC(c4cc[nH]n4)C3)nc2c(=O)n1C (stereo not drawn) [Example 47, 6-(2-(1H-pyrazol-3-yl)morpholino)-8-(4-chloro-2-fluorophenyl)-2,3-dimethylpyrimido[5,4-d]pyrimidin-4(3H)-one]
< 75%	10 to 100 nM	Cc1nc2c(-c3ccc(Cl)cc3F)nc(N3CCOC(c4nccs4)C3)nc2c(=O)n1C (stereo not drawn) [Example 48, 8-(4-chloro-2-fluorophenyl)-2,3-dimethyl-6-(2-(thiazol-2-yl)morpholino)pyrimido[5,4-d]pyrimidin-4(3H)-one]
75 to 110%	100 to 1000 nM	COCC1CN(c2nc(-c3ccc(Cl)cc3F)c3nc(C)n(C)c(=O)c3n2)CCO1 (stereo not drawn) [Example 52, 8-(4-chloro-2-fluorophenyl)-6-(2-(methoxymethyl)morpholino)-2,3-dimethylpyrimido[5,4-d]pyrimidin-4(3H)-one]
75 to 110%	100 to 1000 nM	Cc1nc2c(-c3ccc(Cl)cc3F)nc(N3CCOC(CN(C)C)C3)nc2c(=O)n1C (stereo not drawn) [Example 53, 8-(4-chloro-2-fluorophenyl)-6-(2-((dimethylamino)methyl)morpholino)-2,3-dimethylpyrimido[5,4-d]pyrimidin-4(3H)-one]
< 75%	> 1000 nM	Cc1nc2c(-c3ccc(Cl)cc3F)nc(N3CCOC4(CCCC4)C3)nc2c(=O)n1C [Example 54, 8-(4-chloro-2-fluorophenyl)-2,3-dimethyl-6-(6-oxa-9-azaspiro[4.5]decan-9-yl)pyrimido[5,4-d]pyrimidin-4(3H)-one]
75 to 110%	100 to 1000 nM	Cc1nc2c(-c3ccc(Cl)cc3F)nc(N3CCOC(c4ncon4)C3)nc2c(=O)n1C (stereo not drawn) [Example 58, 6-(2-(1,2,4-oxadiazol-3-yl)morpholino)-8-(4-chloro-2-fluorophenyl)-2,3-dimethylpyrimido[5,4-d]pyrimidin-4(3H)-one]
< 75%	10 to 100 nM	COCCn1c(C)nc2c(-c3ccc(Cl)cc3F)nc(N3CCOC(c4cnn(C)c4)C3)nc2c1=O (stereo not drawn) [Example 61, 8-(4-chloro-2-fluorophenyl)-3-(2-methoxyethyl)-2-methyl-6-(2-(1-methyl-1H-pyrazol-4-yl)morpholino)pyrimido[5,4-d]pyrimidin-4(3H)-one]
< 75%	1 to 10 nM	Cc1nc2c(-c3ccc(Cl)cc3F)nc(N3CC(c4cnn(C)c4)OC(C)(C)C3)nc2c(=O)n1C (stereo not drawn) [Example 62, 8-(4-chloro-2-fluorophenyl)-6-(2,2-dimethyl-6-(1-methyl-1H-pyrazol-4-yl)morpholino)-2,3-dimethylpyrimido[5,4-d]pyrimidin-4 (3H)-one]
< 75%	10 to 100 nM	Cc1nc2c(-c3ccc(Cl)cc3F)nc(N3CCC(c4cnn(C)c4)C3)nc2c(=O)n1C (stereo not drawn) [Example 63, 8-(4-chloro-2-fluorophenyl)-2,3-dimethyl-6-[3-(1-methyl-1H-pyrazol-4-yl)pyrrolidin-1-yl]-3H,4H-pyrimido[5,4-d][1,3]diazin-4-one]

From patent US20260200926A1, “TREM2 MODULATORS” (Muna Therapeutics ApS, priority 2022, published 2026)
